# PubChem BioAssay (NCI)
# Where “and” joins values, the source holds several entries; their conditions need not be identical. Equal values may be shown once.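 In this assay, cells in 96-well plates receive the compound at five concentrations for 48 hours. Endpoints are linearly interpolated between the surrounding concentrations. Here, GI50 denotes the concentration required for 50% inhibition of growth. TGI: total growth inhibition.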
# Key:
# Experiment in all cases: NCI tumour cell line growth inhibition, 48 h
# NCI-H460 lung = system: NCI-H460 lung
# MALME-3M melanoma = system: MALME-3M melanoma
# SW-620 colon = system: SW-620 colon
# TK-10 renal = system: TK-10 renal
# MDA-MB-435 = system: MDA-MB-435
# M14 melanoma = system: M14 melanoma
# SK-OV-3 ovarian = system: SK-OV-3 ovarian
# U251 CNS = system: U251 CNS
# CCRF-CEM leukemia = system: CCRF-CEM leukemia
# HCT-116 colon = system: HCT-116 colon
Compound,GI50 (NCI-H460 lung),TGI (NCI-H460 lung),GI50 (MALME-3M melanoma),TGI (MALME-3M melanoma),GI50 (SW-620 colon),TGI (SW-620 colon),GI50 (TK-10 renal),TGI (TK-10 renal),GI50 (MDA-MB-435),TGI (MDA-MB-435),GI50 (M14 melanoma),TGI (M14 melanoma),GI50 (SK-OV-3 ovarian),TGI (SK-OV-3 ovarian),GI50 (U251 CNS),TGI (U251 CNS),GI50 (CCRF-CEM leukemia),TGI (CCRF-CEM leukemia),GI50 (HCT-116 colon),TGI (HCT-116 colon)
O=C(NCc1ccc(Cn2c(=O)sn(-c3ccccc3)c2=O)cc1)OCc1ccc2c(Br)cc(Br)c(O)c2n1,1.48 µM,3.37 µM,1.38 µM,2.78 µM,0.246 µM,0.649 µM,0.404 µM,1.39 µM,0.427 µM,1.59 µM,0.412 µM,1.51 µM,3.61 µM,14 µM,1.52 µM,3 µM,0.351 µM,> 100 µM,0.141 µM,0.328 µM
COc1cc2c3c(n(CCCI)c(=O)c2cc1OC)-c1cc2c(cc1C3=O)OCO2,0.272 µM,> 100 µM,7.57 µM,54.6 µM,3.17 µM,> 100 µM,14.7 µM,57 µM,6.06 µM,> 100 µM,3.05 µM,> 100 µM,> 100 µM,> 100 µM,1.21 µM,17.5 µM,0.873 µM,> 100 µM,2.6 µM,> 100 µM
CC1(C)[C@@H](O[C@@H]2OC[C@@H](O[C@@H]3O[C@H](CO)[C@@H](O)[C@H](O)[C@H]3O[C@@H]3OC[C@@H](O)[C@H](O)[C@H]3O)[C@H](O)[C@H]2O[C@@H]2O[C@H](CO)[C@@H](O)[C@H](O)[C@H]2O)CC[C@]2(C)[C@H]3CC[C@]45OC[C@@]6(CC[C@](C)(C=O)C[C@H]64)[C@H](O)C[C@@]5(C)[C@]3(C)CC[C@@H]12,1.17 µM,3.26 µM,0.879 µM,1.74 µM,0.969 µM,2.04 µM,0.945 µM,1.83 µM,0.851 µM,1.6 µM,0.925 µM,1.81 µM,0.922 µM,1.67 µM,0.99 µM,2.01 µM,1.02 µM,3.13 µM,0.898 µM,1.91 µM
CCOC(=O)C(=Cc1ccc(Oc2ccccc2)cc1)C(=O)OCC,–,40.7 µM,–,7.4 µM,–,5.9 µM,–,19.4 µM,–,6.33 µM,–,9.6 µM,–,20.5 µM,–,9.25 µM,–,6.75 µM,–,5.93 µM
O=C(NP(=O)(N1CC1)N1CC1)c1cc(I)ccc1I,–,> 79 µM,–,> 92 µM,–,> 100 µM,–,> 100 µM,–,> 100 µM,–,> 100 µM,–,89.9 µM,–,> 100 µM,–,> 78.8 µM,–,> 100 µM
Cc1cc(Cl)ccc1NC(=O)c1cc2ccccc2cc1O,0.511 µM,> 100 µM,0.342 µM,> 100 µM,1.59 µM,> 100 µM,1.56 µM,> 100 µM,0.555 µM,> 100 µM,0.657 µM,> 100 µM,2.11 µM,> 100 µM,0.503 µM,> 27.5 µM,1.22 µM,> 100 µM,0.405 µM,> 100 µM
CC(=O)O[C@]1(C(C)=O)CC[C@H]2[C@@H]3C=C(C)C4=CC(=O)CC[C@]4(C)[C@H]3CC[C@@]21C,98.5 µM,> 100 µM,> 74 µM,> 100 µM,> 100 µM,> 100 µM,> 77.6 µM,> 100 µM,> 100 µM,> 100 µM,> 85.6 µM,> 100 µM,> 91.9 µM,> 100 µM,> 60.9 µM,> 100 µM,> 80.4 µM,> 100 µM,28 µM,> 100 µM
COc1ccc2c(c1)n([O-])c1ccccc1[n+]2=O,16.8 µM and 5.54 µM,> 100 µM and 34.3 µM,–,> 100 µM and 69.9 µM,–,> 100 µM,–,> 100 µM,65.4 µM and 22.2 µM,> 100 µM and 46.4 µM,62.1 µM and 7.9 µM,> 100 µM and 21.7 µM,–,94.8 µM,–,> 100 µM,–,> 100 µM,–,> 100 µM
COc1cc(C2=C(C#Cc3ccccc3)COC2=O)cc(OC)c1OC,3.3 µM,> 100 µM,3.72 µM,33.1 µM,0.755 µM,–,1.9 µM,5.97 µM,0.302 µM,–,1.77 µM,11.7 µM,20.4 µM,> 100 µM,1.91 µM,5.61 µM,3.39 µM,59.3 µM,0.69 µM,4.01 µM
CC1OC(OC2C(O[C@H]3CC[C@@]4(C)C(=CC[C@H]5[C@@H]6C[C@@H]7O[C@]8(CC[C@H](C)CN8)[C@@H](C)[C@@H]7[C@@]6(C)CC[C@@H]54)C3)OC(CO)C(O)C2OC2OC(CO)C(O)C(O)C2O)C(O)C(O)C1O (stereo partly specified),–,31.6 µM,–,34.5 µM,–,39 µM,–,31.1 µM,–,50.7 µM,–,37.8 µM,–,30.5 µM,–,> 100 µM,–,39.3 µM,–,39.9 µM
CSc1ccc(NC(=S)NN(C)C)cc1,–,> 10 µM,–,> 10 µM,–,> 10 µM,–,> 10 µM,–,> 10 µM,–,> 10 µM,–,> 10 µM,–,> 10 µM,–,> 10 µM,–,> 10 µM
Cc1occc1C(=S)Nc1ccc(Cl)c(C(=O)OC(C)C2CC2)c1 (stereo unspecified),–,> 100 µM,–,36.4 µM,–,> 100 µM,–,> 100 µM,–,66.2 µM,–,53.4 µM,–,50.5 µM,–,70.5 µM,–,> 100 µM,–,> 100 µM
